Values quoted from earlier work, collected in patent US20100323983A1, “PHARMACEUTICAL OR COSMETIC PREPARATIONS FOR TOPICAL AND/OR PARENTERAL APPLICATION, PREPARATION METHODS THEREOF, AND USES THEREOF” (priority 2007, published 2010).

Conditions: humans

## hyaluronic acid
  excretion in the urine: less than 1 % of total clearance
